Data published in publication PMC9658513, “Discovery of Compounds That Selectively Repress the Amyloidogenic Processing of the Amyloid Precursor Protein: Design, Synthesis and Pharmacological Evaluation of Diphenylpyrazoles” (International Journal of Molecular Sciences, 2022).
Where two headings read alike, the source gives them in different places.

Legend:
Aβ1–40 peptide secretion = assay: Aβ1–40 secretion in cell medium by ELISA; format: cell-based, human
How it was run: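 SY5Y-APP^WT cells (SH-SY5Y human neuroblastoma stably expressing human wild-type APP695) were treated with compounds for 24 h in supplemented DMEM at 37 °C. Secreted Aβ1–40 and Aβ1–42 were quantified in the collected, centrifuged conditioned medium by ELISA, in pg/mL.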

[1] = test system: αCTF (APP carboxy-terminal fragment); assay: αCTF level by Western blotting in SY5Y-APP^WT cells; format: cell-based, human; conditions: for EC (20-fold increase): concentration increasing αCTF 20-fold vs untreated control, SY5Y-APP^WT cells, read-out: αCTF (C20); for C20 for CTFα and AICD: CTFα and AICD together
How it was run: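 SH-SY5Y cells stably expressing human wild-type APP695 treated with compounds for 24 h at 37 °C. αCTF and AICD measured by Western blot of lysates (10 µg protein, 12% Bis-Tris gels) as band intensity; C20 is concentration raising these fragments 20-fold over control.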

[2] = Homo sapiens, SY5Y-APP^WT cells, 24 h treatment, mean ± SD of at least three experiments in triplicate, read-out: Aβ1–40 IC50
[3] = Homo sapiens, Aβ1–40 and Aβ1–42 not distinguished, read-out: IC50 for Aβ secretion (Aβ1–x production)

Row | Molecule | IC50 (Aβ1–40 peptide secretion; [2]) [nM] | EC (20-fold increase) ([1]; Homo sapiens) [µM] | IC50 (Aβ1–40 peptide secretion; [3]) [nM] | C20 for CTFα and AICD [1] | IC50 (Aβ1–40 peptide secretion; SY5Y-APP^WT cells, 24 h treatment, mean ± SD of at least three experiments in triplicate, read-out: Aβ1–40 IC50) [nM] | EC (20-fold increase) [1] [µM]
1 | CN(C)CCCc1ccc(-c2nn(-c3ccc(CN(C)C)cc3)cc2CN(C)C)cc1 [Compound 24, 3-[4-[4-(Dimethylaminomethyl)-1-[4-(dimethylaminomethyl)phenyl] Pyrazol-3-yl]phenyl]-N,N-dimethyl-propan-1-amine] | 1500 ± 100 | 1.6 | – | – | – | –
2 | Cc1cn(-c2cccc(CO)c2)nc1-c1ccc(CN(C)CCCN(C)C)cc1 [Compound 57, (3-{3-[4-({[3-(Dimethylamino)propyl](methyl)amino}methyl)phenyl]-4-methyl-1H-pyrazol-1-yl}phenyl)methanol] | 2900 ± 1000 | > 10 | – | – | – | –
3 | Cc1cn(-c2cccc(CN3CCN(C)CC3)c2)nc1-c1cccc(CN(C)C)c1 [Compound 65, N,N-dimethyl-1-[3-[4-methyl-1-[3-[(4-methylpiperazin-1-yl)methyl]phenyl]pyrazol-3-yl]phenyl]methanamine] | 2000 ± 700 | 1.7 | – | – | – | –
4 | Cc1cn(-c2cccc(CN(C)C)c2)nc1-c1ccc(CN(C)CCCN(C)C)cc1 [Compound 67, {[4-(1-{3-[(Dimethylamino)methyl]phenyl}-4-methyl-1H-pyrazol-3-yl)phenyl]methyl} [3-(Dimethylamino)propyl]methylamine] | 1300 ± 100 | 1.4 | ~1000 | around 1 µM | – | –
5 | Cc1cn(-c2cccc(CN(C)C)c2)nc1-c1cccc(CN(C)CCCN(C)C)c1 [Compound 70, N′-[[3-[1-[3-(Dimethylaminomethyl)phenyl]-4-methyl-pyrazol-3-yl]phenyl] Methyl]-N,N,N′-trimethyl-propane-1,3-diamine] | 1500 ± 100 | 1.3 | – | – | – | –
6 | Cc1cn(-c2cccc(CN3CCN(C)CC3)c2)nc1-c1cccc(CN(C)CCCN(C)C)c1 [Compound 71, N,N,N′-Trimethyl-N′-[[3-[4-methyl-1-[3-[(4-methylpiperazin-1-yl)methyl]phenyl]pyrazol-3-yl]phenyl]methyl]propane-1,3-diamine] | 1200 ± 100 | 0.7 | ~1000 | around 1 µM | – | –
7 | N′-[[4-[4-[3-(Dimethylamino)propyl]-3-[4-[3-(dimethylamino)propyl]phenyl] Pyrazol-1-yl]phenyl]methyl]-N,N,N′-trimethyl-propane-1,3-diamine [Compound 33] | – | – | – | – | 9200 ± 400 | 6.1
